Assay results: US11278525B1, “Further molecules, compositions and methods for modulation of SIRT6” (SirTLab Corporation, priority 2017, dated 2022)

Columns and labels:
SIRT6 [1] = molecular target: T1, SIRT6 (Homo sapiens, UniProt Q8N6T7); assay: Secondary validation assays: HPLC deacylation, fluorometric deacetylation, in vitro histone deacetylation; type: biochemical; conditions: values only in FIGS. 1-3
Procedure: The activating effect of three compounds (ChemDiv ID E677-1326, E677-0945 and D715-0284) for SIRT6 was validated by conducting the following secondary assays. As previously described, D715-0284 is a stereoisomer of molecule 768382-41-8.
1. HPLC deacylation assay. SIRT6 was incubated with compounds and myristoyl-lysine peptide (corresponding to TNF-alpha sequence) at 37° C. The deacylation reactions were analyzed by reversed phase high-performance liquid chromatography on Kinetex C18 column by monitoring the formation of the deacylated product at 214 nm. […] Equally diluted DMSO served as control.
2. Fluorometric deacetylation assay. SIRT6 was incubated with compounds and fluorophore-labelled acetyl-lysine peptide (corresponding to histone H3 sequence) at 37° C. […] Results are expressed as a percentage of DMSO—treated control.
3. In vitro histone deacetylation assay. Chromatin was purified from HEK293T cells by two steps of lysis (with Nonidet P-40 lysis buffer). SIRT6 was incubated with chromatin proteins and the reaction mixture is then used for Western blot analysis. […] SIRT6 (0.5 μM) was incubated with chromatin fractions isolated from HEK293T cells in the presence of 10 micromolar NAD+ and compound D715-0284 or DMSO (control) at 37° C.

SIRT6 [2] = molecular target: T1, SIRT6; assay: SIRT6 enzymatic activity assay with fluorophore (AMC)-labeled Lysin-myristoylated histone H3 peptide (de-myristoylation, trypsin release); type: biochemical; set-up: six-histidine tag; made in house; host or cells: Escherichia coli BL21; conditions: for % activity 20 uM: compound 20 uM; for % activity 20 uM / % activity Max. conc. 100 uM: percentage of signal increase relative to control wells, Tables 1-2; for % activity Max. conc. 100 uM: compound 100 uM
Procedure: Human recombinant SIRT6 (sequence identifier: CAG33481.1; GI:4814651) was expressed in large scale in Escherichia coli strain BL21 as a six-histidine-tagged protein, after transformation of the expression plasmid pET28-SIRT6. The SIRT6 enzyme was purified from the bacteria culture broth in a two-step strategy. The first purification step was carried out by cation exchange chromatography on a HiTrap CM-Sepharose column (GE Healthcare) using an FPLC system. The second purification step was performed by immobilized metal ion affinity chromatography (IMAC) using a cobalt affinity column (Clontech).
The enzymatic activity assay is carried out in 96 or 384-well microplates using the purified recombinant SIRT6 and a fluorophore-labeled peptide substrate: 7-amino-4-methylcoumarin (AMC) that is quenched through conjugation to the C-terminal end of a Lysin-myristoylated histone H3 peptide. The activity assay procedure requires two steps, both performed in the same microplate. In the first step, the substrate is incubated with the purified SIRT6 protein along with the co-substrate nicotinamide adenine dinucleotide (NAD+). Upon de-myristoylation, the liberated ε-amino group of the lysine becomes a trypsin substrate. Treatment with trypsin in the second step releases the fluorophore resulting in an increase in fluorescence. Fluorescence intensity is measured using a fluorescent plate reader (excitation and emission at 370 nm and 450 nm, respectively). The fluorescence signal is directly proportional to SIRT6 enzymatic activity.
In the primary screening, compounds from a library (ChemDiv Inc.) were tested at a single concentration of 20 micromolar for their potential to modulate SIRT6 enzymatic activity. The assay was carried out in 384-well black well plates and all liquid handling was done using a robotic liquid handler. Purified recombinant SIRT6 (1 micromolar) was pre-incubated with each compound (or DMSO in control wells) for 15 minutes at room temperature. The first stage of the assay was initiated by adding a ‘substrate solution’ containing the myristoylated histone H3 peptide and NAD+(for final concentrations of 25 micromolar and 20 micromolar, respectively). After one hour incubation at 37° C., a Trypsin solution (6 mg/mL) was added for 30 minutes at room temperature. Fluorescence intensity was measured using a fluorescent plate reader (Tecan) with excitation at 370 nm and emission at 450 nm. The effect of each tested compound was evaluated by the change in the fluorescence intensity compared to control wells. […] To validate the primary screening results, each of the primary “hits” was re-tested, first at concentration of 20 micromolar in duplicates and later at a serial dilution ranging from 100 to 0.2 micromolar in triplicates.
Results of Assay—The results of the assay are given below in Tables 1-3.
Additional molecules were tested according to the methods and materials of Example 1. The amount tested was 20 uM for each molecule.

T1 sequence (Q8N6T7 whole entry): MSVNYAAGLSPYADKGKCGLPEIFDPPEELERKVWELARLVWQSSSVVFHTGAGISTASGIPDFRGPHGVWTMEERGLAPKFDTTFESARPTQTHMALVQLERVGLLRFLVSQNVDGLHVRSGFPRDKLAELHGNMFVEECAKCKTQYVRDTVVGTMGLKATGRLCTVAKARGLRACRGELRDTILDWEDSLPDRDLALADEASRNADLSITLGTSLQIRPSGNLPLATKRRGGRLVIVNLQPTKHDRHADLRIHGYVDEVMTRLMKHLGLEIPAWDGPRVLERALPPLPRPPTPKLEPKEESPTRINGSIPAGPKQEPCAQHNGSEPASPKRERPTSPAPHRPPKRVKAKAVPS

activating effect for SIRT6 in secondary assays (in words) (SIRT6 [1])	% activity 20 uM (SIRT6 [2])	% activity Max. conc. 100 uM (SIRT6 [2])	% Activity (SIRT6 [2]; amount tested 20 uM, Example 5, Table 9)	SMILES
validated	287%	252%		CN(C)CCCN(C(=O)CCOc1ccccc1)c1nc2c(F)cccc2s1 [E677-1326]
validated	263%	255%		Cc1cccc2sc(N(CCCN(C)C)C(=O)CCOc3ccccc3)nc12 [E677-0945]
			85%	CCN(CC)C(=O)C1CCN(C2=Nc3ccc(-c4ccncc4)nc3C2)CC1 [T387-1131]
